{"source": "paper PMC6151740", "about": "“Pharmacokinetics, Tissue Distribution, and Elimination of Three Active Alkaloids in Rats after Oral Administration of the Effective Fraction of Alkaloids from Ramulus Mori, an Innovative Hypoglycemic Agent” (Molecules : A Journal of Synthetic Chemistry and Natural …, 2017)", "key": {"[1]": {"test": "In vitro incubation of SZ–A with rat intestinal homogenate", "assay_type": "in vitro ADME", "details": "SZ–A 10.87 μg/mL, with/without NADPH generation, 37 °C, 120 min", "description": "Pooled rat intestinal homogenate from six males was prepared using a tissue homogenizer with ice cold normal saline solution at a proportion of 1:3 (w/v). SZ–A was incubated with rat intestinal homogenate (5 mg protein/mL) with/without a NADPH-generating system (0.011 M β-NADP, 0.1 M glucose 6-phosphate, 10 U/mL glucose-6-phosphate dehydrogenase) in a 37 °C water bath for 120 min. Meanwhile, caecal content was collected and mixed with anaerobic medium (1:30, w/v) to prepare the cultures under nitrogen atmosphere at 37 °C for 120 min. SZ–A and rat caecal microbiota cultures were incubated at a total volume of 200 μL with the boiled samples as the negative control, concomitantly. The incubation was stopped at 2 h by adding two volumes of methanol–acetonitrile (1:3, v/v). Triplicate supernatants were taken by centrifugation at 18,880× g for 5 min and stored at −20 °C until LC-MS/MS analysis. The results were expressed as the percentage of the concentration at 0 min."}, "[2]": {"test": "Tissue distribution in rats after oral SZ–A", "assay_type": "in vivo", "details": "Sprague-Dawley, pancreas, rat, SZ–A 40 mg/kg p.o., 0.25, 0.5 and 2 h, n = 3, read-out: tissue to plasma ratio (T/P) in the pancreas", "description": "Three groups of rats (three rats in each group) were administered with a single oral dose of SZ–A at 40 mg/kg. Rats each were sacrificed and various tissues, including liver, kidney, pancreas, stomach, duodenum, jejunum, ileum, cecum, colon, and the content in the gastrointestinal tract were collected at 0.25, 0.5, and 2 h time points. One additional rat was sacrificed predose to provide control tissues for analysis. After removing blood or content and weighing, each sample was individually homogenized with normal saline solution (1:3, w/v for tissue; 1:9, w/v for content) using a tissue homogenizer (Polytron PT1600E, Kinematica, Luzern, Switzerland) and stored at −20 °C until LC-MS/MS analysis."}, "[3]": {"test": "Plasma pharmacokinetic study in rats after oral and intravenous administration of SZ–A or purified DNJ", "assay_type": "in vivo, rat", "details": "for MRT last: read-out: MRT0–t; for MRT inf: read-out: MRT0–∞; for bioavailability: plasma, read-out: F (oral absolute bioavailability)", "description": "The oral dosing solutions used for all animal studies were prepared by dissolving in water. Thirty rats weighed 250–270 g after acclimation were randomly divided into six groups of five animals each. For oral administration, rats were treated with SZ–A (40, 200, 1000 mg/kg) or purified DNJ (15 mg/kg) dissolve in water. Blood samples (about 0.25 mL) were collected via the postorbital venous plexus veins under ether anesthesia into heparinized polythene tubes before dosing and at 0.08, 0.17, 0.33, 0.50, 1, 2, 3, 4, 6, 8, 12, 24 and 36 h after drug administration. For intravenous dosing, rats were given SZ–A (4 mg/kg) or DNJ (1.5 mg/kg) dissolved in normal saline solution through the tail vein. Then blood samples were collected at 0.03, 0.08, 0.17, 0.33, 0.67, 1, 2, 4, 6, 8, 12, 24, and 36 h under similar conditions. Considering the physical limit of blood in rats, during the process of the pharmacokinetic experiment, each rat was received 0.25 mL of sterile isotonic saline at each time point after blood sampling for compensation of body fluid loss, and the blood loss was also corrected at a definite degree. Plasma was separated by centrifuging the blood samples at 1660× g for 5 min and stored at −20 °C until LC-MS/MS analysis. Data fitting and pharmacokinetic parameter estimates were carried out using non–compartmental analysis via WinNonlin Software (version 6.1, Pharsight Corporation, Mountain View, CA, USA). F was calculated according to the formula: F (%) = (AUC oral/AUC i.v.) × (dose i.v./dose oral) × 100.\nThe plasma, feces, urine, and bile samples (100 μL) were added to 1 μL of Tris aqueous solution (2 M), 10 μL of IS working solution (2 μg/mL), and 190 μL methanol–acetonitrile (25:75, v/v). The incubation supernatant samples (300 μL) were mixed with 1 μL Tris aqueous solution (2 M) and 10 μL of IS working solution (2 μg/mL). All mixtures were vortexed for 30 s followed by centrifugation at 18,880× g for 5 min, twice.\nBriefly, the LC-MS/MS instrument consisted of a 1260 HPLC system (Agilent, Santa Clara, CA, USA) and API4000 triple quadrupole mass spectrometer (Applied Biosystems Sciex, Toronto, ON, Canada) with an electrospray ionization (ESI) source and Analyst software (version 1.5.2, Applied Biosystems Sciex, Toronto, ON, Canada) for data acquisition and processing. DNJ, FGM, DAB, and IS were separated in a Xbridge amide™ column (3.5 μm, 4.6 mm × 150 mm; Waters, Milford, MA, USA) with a gradient mobile phase of acetonitrile-water (0.1% ammonium hydroxide) at a flow rate of 0.7 mL/min. An ESI source was used in the positive ion mode. The optimized mass spectrometric condition was as follows: ion spray voltage, 5500 V; collision gas, 6 psi; curtain gas, 20 psi; ion source gas 1 (GS1), 45 psi; ion source gas 2 (GS2), 45 psi; temperature, 450 °C. The multiple reaction monitoring (MRM) transitions of DNJ, FGM, DAB, and IS were m/z 164.0→110.1 (declustering potential (DP) 50 V, collision energy (CE) 22 V, collision cell exit potential (CXP) 10 V), 148.0→112.1 (DP 66 V, CE 21 V, CXP 10 V), 134.0→98.0 (DP 60 V, CE 20 V, CXP 10 V) and 208.0→146.1 (DP 50 V, CE 27 V, CXP 10 V), respectively."}, "[4]": {"details": "Sprague-Dawley, iv, rat plasma, SZ–A 4 mg/kg i.v., n = 5"}, "[5]": {"details": "Sprague-Dawley, po, rat plasma, SZ–A 40 mg/kg p.o., n = 5"}, "[6]": {"details": "Sprague-Dawley, po, rat plasma, SZ–A 200 mg/kg p.o., n = 5"}, "[7]": {"details": "Sprague-Dawley, po, rat plasma, SZ–A 1000 mg/kg p.o., n = 5"}, "[8]": {"details": "rat plasma, SZ–A 40 mg/kg p.o., n = 5"}, "[9]": {"details": "rat plasma, SZ–A 200 mg/kg p.o., n = 5"}, "[10]": {"details": "rat plasma, SZ–A 1000 mg/kg p.o., n = 5"}}, "note": "Where two headings read alike, the source gives them in different places."}
{"compound": "OC[C@H]1NCC[C@@H](O)[C@@H]1O", "note": "[FGM, fagomine]", "values": [{"measurement": "amount of alkaloid after incubation in rat intestinal homogenate", "setting": "[1]", "value": "not changed significantly"}, {"measurement": "Kp", "setting": "[2]", "value": "0.18 to 1.13"}, {"measurement": "AUC(0-inf)", "setting": "[3]; [4]", "value": "284 ± 36.7", "unit": "ng·h/mL"}, {"measurement": "AUC(0-t)", "setting": "[3]; [4]", "value": "278 ± 36.8", "unit": "ng·h/mL"}, {"measurement": "Cmax", "setting": "[3]; [4]", "value": "1240 ± 304", "unit": "ng/mL"}, {"measurement": "Tmax", "setting": "[3]; [4]", "value": 0.033, "unit": "h"}, {"measurement": "half-life", "setting": "[3]; [4]", "value": "0.23 ± 0.03", "unit": "h"}, {"measurement": "clearance", "setting": "[3]; Sprague-Dawley, iv, rat plasma, SZ–A 4 mg/kg i.v., n = 5, read-out: CLz (converted)", "value": 15.4, "unit": "mL/min/kg"}, {"measurement": "MRT last", "setting": "[3]; [4]", "value": "0.26 ± 0.06", "unit": "h"}, {"measurement": "MRT inf", "setting": "[3]; [4]", "value": "0.3 ± 0.06", "unit": "h"}, {"measurement": "Vd", "setting": "[3]; Sprague-Dawley, iv, rat plasma, SZ–A 4 mg/kg i.v., n = 5, read-out: Vd", "value": "0.308 ± 0.061", "unit": "L/kg"}, {"measurement": "bioavailability", "setting": "[3]; Sprague-Dawley, po, rat, SZ–A 40 mg/kg p.o. vs SZ–A 4 mg/kg i.v.", "value": 77.5, "unit": "%"}, {"measurement": "bioavailability", "setting": "[3]; Sprague-Dawley, po, rat, SZ–A 200 mg/kg p.o. vs SZ–A 4 mg/kg i.v.", "value": 38.5, "unit": "%"}, {"measurement": "bioavailability", "setting": "[3]; Sprague-Dawley, po, rat, SZ–A 1000 mg/kg p.o. vs SZ–A 4 mg/kg i.v.", "value": 29.9, "unit": "%"}, {"measurement": "AUC(0-inf)", "setting": "[3]; [5]", "value": "2170 ± 770", "unit": "ng·h/mL"}, {"measurement": "AUC(0-t)", "setting": "[3]; [5]", "value": "2160 ± 778", "unit": "ng·h/mL"}, {"measurement": "Cmax", "setting": "[3]; [5]", "value": "1490 ± 756", "unit": "ng/mL"}, {"measurement": "Tmax", "setting": "[3]; [5]", "value": "0.67 ± 0.29", "unit": "h"}, {"measurement": "half-life", "setting": "[3]; [5]", "value": "0.93 ± 0.29", "unit": "h"}, {"measurement": "MRT last", "setting": "[3]; [5]", "value": "1.41 ± 0.27", "unit": "h"}, {"measurement": "MRT inf", "setting": "[3]; [5]", "value": "1.48 ± 0.34", "unit": "h"}, {"measurement": "AUC(0-inf)", "setting": "[3]; [6]", "value": "5400 ± 1470", "unit": "ng·h/mL"}, {"measurement": "AUC(0-t)", "setting": "[3]; [6]", "value": "5360 ± 1490", "unit": "ng·h/mL"}, {"measurement": "Cmax", "setting": "[3]; [6]", "value": "2250 ± 1060", "unit": "ng/mL"}, {"measurement": "Tmax", "setting": "[3]; [6]", "value": "0.57 ± 0.09", "unit": "h"}, {"measurement": "half-life", "setting": "[3]; [6]", "value": "1.44 ± 0.16", "unit": "h"}, {"measurement": "MRT last", "setting": "[3]; [6]", "value": "2.66 ± 0.52", "unit": "h"}, {"measurement": "MRT inf", "setting": "[3]; [6]", "value": "2.78 ± 0.54", "unit": "h"}, {"measurement": "AUC(0-inf)", "setting": "[3]; [7]", "value": 21800, "unit": "ng·h/mL"}, {"measurement": "AUC(0-t)", "setting": "[3]; [7]", "value": 20800, "unit": "ng·h/mL"}, {"measurement": "Cmax", "setting": "[3]; [7]", "value": "4390 ± 2360", "unit": "ng/mL"}, {"measurement": "Tmax", "setting": "[3]; [7]", "value": "1.3 ± 0.67", "unit": "h"}, {"measurement": "half-life", "setting": "[3]; [7]", "value": "2.73 ± 1.16", "unit": "h"}, {"measurement": "MRT last", "setting": "[3]; [7]", "value": "5.44 ± 1.77", "unit": "h"}, {"measurement": "MRT inf", "setting": "[3]; [7]", "value": "6.15 ± 2.11", "unit": "h"}, {"measurement": "CLz", "setting": "[3]; [8]", "value": "21.965 ± 9.748", "unit": "mL/min/kg"}, {"measurement": "Vd", "setting": "[3]; [8]", "value": "1.894 ± 1.3578", "unit": "L/kg"}, {"measurement": "CLz", "setting": "[3]; [9]", "value": "42.625 ± 13.11", "unit": "mL/min/kg"}, {"measurement": "Vd", "setting": "[3]; [9]", "value": "5.332 ± 1.8559", "unit": "L/kg"}, {"measurement": "CLz", "setting": "[3]; [10]", "value": "56.43 ± 21.033", "unit": "mL/min/kg"}, {"measurement": "Vd", "setting": "[3]; [10]", "value": "14,243.4 ± 9987.6 mL/kg"}, {"measurement": "time to reach maximum plasma concentration (Cmax)", "setting": "[3]; rat, after oral administration of SZ–A (40, 200, 1000 mg/kg), upper bound over doses", "value": "≤ 1.30", "unit": "h"}]}
